Measured values published in US20250213701A1, “MEDICAMENT FOR TREATING HUMAN TUMOR BASED ON ERF3A-TARGETING PROTEOLYSIS MECHANISM” (SUZHOU DEGEN BIO-MEDICAL CO., LTD., priority 2022, published 2025).

Legend:
22Rv1 cells = assay: Anti-proliferative toxicity against prostate cancer cell line 22Rv1 (CCK8); assay type: cell-based, human; details: 3 days; for IC50: Homo sapiens, 72 h, CCK8
Method in brief: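 22Rv1 cells pre-cultured for 48 h, then exposed to compounds at 0.00001-1.0 μM final, in triplicate, for 3 days. Viability read by CCK8 absorbance at 450 nm after 1-4 h at 37 °C.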

PC-3 cells = assay: Anti-proliferative toxicity against prostate cancer cell line PC-3 (CCK8); assay type: cell-based, human; details: Homo sapiens, 72 h, 3 days
Method in brief: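 PC-3 cells (4000/well, pre-cultured 24 h) exposed in triplicate to compound at final 0.00001-1.0 μM for 3 days at 37 °C, 5% CO2. Viability read by CCK8, 1-4 h at 37 °C, absorbance at 450 nm.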

VCaP cells = assay: Anti-proliferative toxicity against prostate cancer cell line Vcap (CCK8); assay type: cell-based, human; details: 3 days; for IC50: Homo sapiens, 72 h, CCK8
Method in brief: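 VCaP cells (DMEM, 10% FBS) seeded 20000 cells/well, cultured 72 h, then exposed in triplicate to compound at final well concentrations of 0.00001–0.16 μM for 3 days at 37 °C, 5% CO2. Viability by CCK8, 1–4 h at 37 °C, absorbance at 450 nm.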

NCI-N87 cells = assay: Anti-proliferative toxicity of C63 in tumor cell lines (CCK8): NCI-N87; assay type: cell-based; details: Homo sapiens, 72 h, 3 days, read-out: Inhibition rate
Description: Example 83: Detection of Anti-Proliferative Toxicity of C63 in Some Tumor Cell Lines
NCI-N87 cells (purchased from the Cell Bank of the Chinese Academy of Sciences, Cat. No. TCHu130) were subcultured in a culture medium (RPMI-1640 medium+1% penicillin-streptomycin dual-antibiotic solution+10% fetal bovine serum) in an incubator at 5% carbon dioxide and 37° C.
NCI-N87 cells were seeded at 8000 cells/well (90 μL) on a 96-well plate and cultured for 24 h.
10 mM compound stock solutions were prepared in DMSO.
The compound stock solution was diluted with DMSO to give DMSO solutions 1-9 at concentrations of 0 μM, 2500 μM, 500 μM, 100 μM, 20 μM, 4 μM, 0.8 μM, 0.16 μM, and 0.032 μM.
2 μL of each of solutions 1-9 was added to 98 μL of the medium to give mixed solutions 11-19 of the compound and the medium.
10 μL of each of solutions 11-19 was added to the above cell seed solution to give a total volume of 100 μL (90 μL+10 μL).
The concentrations of the compound in the wells were 0 μM, 5.0 μM, 1.0 μM, 0.2 μM, 0.04 μM, 0.008 μM, 0.0016 μM, 0.00032 μM, and 0.000064 μM. All concentrations were in triplicate.
After the above-treated cells were cultured for 3 days, 10 μL of the CCK8 solution (DOJINDO, Cat. No. PF725) was added to each well. The plate was incubated in an incubator at 37° C. for 1-4 h and then detected on a microplate reader for the reading at 450 nm.

SMILES	Anti-proliferative toxicity data in 22Rv1 cells (22Rv1 cells; 0.00001 μM)	Anti-proliferative toxicity data in 22Rv1 cells (22Rv1 cells; 0.00006 μM)	Anti-proliferative toxicity data in 22Rv1 cells (22Rv1 cells; 0.00032 μM)	Anti-proliferative toxicity data in 22Rv1 cells (22Rv1 cells; 0.00160 μM)	Anti-proliferative toxicity data in 22Rv1 cells (22Rv1 cells; 0.00800 μM)	Anti-proliferative toxicity data in 22Rv1 cells (22Rv1 cells; 0.04000 μM)	Anti-proliferative toxicity data in 22Rv1 cells (22Rv1 cells; 0.20000 μM)	Anti-proliferative toxicity data in 22Rv1 cells (22Rv1 cells; 1.00000 μM)	IC50 (22Rv1 cells)	IC50 (PC-3 cells)	Anti-proliferative toxicity data in VCaP cells (VCaP cells; 0.00001 μM)	Anti-proliferative toxicity data in VCaP cells (VCaP cells; 0.00005 μM)	Anti-proliferative toxicity data in VCaP cells (VCaP cells; 0.00010 μM)	Anti-proliferative toxicity data in VCaP cells (VCaP cells; 0.00030 μM)	Anti-proliferative toxicity data in VCaP cells (VCaP cells; 0.00100 μM)	Anti-proliferative toxicity data in VCaP cells (VCaP cells; 0.00300 μM)	Anti-proliferative toxicity data in VCaP cells (VCaP cells; 0.00600 μM)	Anti-proliferative toxicity data in VCaP cells (VCaP cells; 0.03200 μM)	Anti-proliferative toxicity data in VCaP cells (VCaP cells; 0.16000 μM)	IC50 (VCaP cells)	also measured
C[C@]12C=CC(=O)N[C@@H]1CC[C@@H]1[C@@H]2CC[C@]2(C)[C@@H](C(=O)Nc3cccc(N[C@@H]4CCC[C@@H](Nc5cccc6c5C(=O)N(C5CCC(=O)NC5=O)C6=O)C4)c3)CC[C@@H]12 (stereo partly drawn) [C59, N-(3-(N—(N-(4-(2-(3-(2,6-dioxopiperidine))-isoindole-1,3-dione))-1R,3R-cyclohexanediamine))phenyl)-3-oxo-4-aza-5α-androst-1-ene-17β-carboxamide]	8.3%	41.3%	79.6%	80.7%	81.1%	81.1%	81.9%	82.3%	0.1 to 10 nM	0.1 to 10 nM	0.6%	62.5%	78.6%	88.3%	92.7%	93.5%	94.1%	94.6%	94.6%	≤ 0.1 nM	–
C[C@]12C=CC(=O)N[C@@H]1CC[C@@H]1[C@@H]2CC[C@]2(C)[C@@H](C(=O)Nc3cccc(N[C@@H]4CCC[C@@H](Nc5cccc6c5C(=O)N([C@H]5CCC(=O)NC5=O)C6=O)C4)c3)CC[C@@H]12 [C63, N-(3-(N—(N-(4-(2-(3S-(2,6-dioxopiperidine))-isoindole-1,3-dione))-1R,3R-cyclohexanediamine))phenyl)-3-oxo-4-aza-5α-androst-1-ene-17β-carboxamide]	23.5%	62.4%	76.5%	87.8%	86.5%	88.0%	86.9%	84.5%	0.1 to 10 nM	0.1 to 10 nM	25.2%	75.7%	80.2%	89.2%	93.1%	94.0%	94.3%	94.5%	94.8%	≤ 0.1 nM	inhibition at 64 pM (NCI-N87 cells; 0.000064 μM): 7.79%; inhibition at 0.00032 µM (NCI-N87 cells; 0.000320 μM): 32.7%; inhibition at 0.0016 µM (NCI-N87 cells; 0.001600 μM): 61%; inhibition at 0.008 µM (NCI-N87 cells; 0.008000 μM): 66.7%; inhibition at 0.04 µM (NCI-N87 cells; 0.040000 μM): 64.1%; inhibition at 0.2 µM (NCI-N87 cells; 0.200000 μM): 62.5%; inhibition at 1 µM (NCI-N87 cells; 1.000000 μM): 64%; inhibition at 5 µM (NCI-N87 cells; 5.000000 μM): 65.2%
